Experiment in all cases: biochemical
Common to all, as to parameters: DiscoveRx KINOMEscan active site-directed competition binding; percent of control kinase bound to immobilised ligand

One assay deals with DAPK3 (Homo sapiens, UniProt O43293).
The next assay deals with T1, PFTAIRE2 (Homo sapiens, UniProt Q96Q40).
T1 construct: gene CDK15

The target in a further assay is T2, LATS2 (Homo sapiens, UniProt Q9NRM7).
T2 sequence (Q9NRM7 1-1088): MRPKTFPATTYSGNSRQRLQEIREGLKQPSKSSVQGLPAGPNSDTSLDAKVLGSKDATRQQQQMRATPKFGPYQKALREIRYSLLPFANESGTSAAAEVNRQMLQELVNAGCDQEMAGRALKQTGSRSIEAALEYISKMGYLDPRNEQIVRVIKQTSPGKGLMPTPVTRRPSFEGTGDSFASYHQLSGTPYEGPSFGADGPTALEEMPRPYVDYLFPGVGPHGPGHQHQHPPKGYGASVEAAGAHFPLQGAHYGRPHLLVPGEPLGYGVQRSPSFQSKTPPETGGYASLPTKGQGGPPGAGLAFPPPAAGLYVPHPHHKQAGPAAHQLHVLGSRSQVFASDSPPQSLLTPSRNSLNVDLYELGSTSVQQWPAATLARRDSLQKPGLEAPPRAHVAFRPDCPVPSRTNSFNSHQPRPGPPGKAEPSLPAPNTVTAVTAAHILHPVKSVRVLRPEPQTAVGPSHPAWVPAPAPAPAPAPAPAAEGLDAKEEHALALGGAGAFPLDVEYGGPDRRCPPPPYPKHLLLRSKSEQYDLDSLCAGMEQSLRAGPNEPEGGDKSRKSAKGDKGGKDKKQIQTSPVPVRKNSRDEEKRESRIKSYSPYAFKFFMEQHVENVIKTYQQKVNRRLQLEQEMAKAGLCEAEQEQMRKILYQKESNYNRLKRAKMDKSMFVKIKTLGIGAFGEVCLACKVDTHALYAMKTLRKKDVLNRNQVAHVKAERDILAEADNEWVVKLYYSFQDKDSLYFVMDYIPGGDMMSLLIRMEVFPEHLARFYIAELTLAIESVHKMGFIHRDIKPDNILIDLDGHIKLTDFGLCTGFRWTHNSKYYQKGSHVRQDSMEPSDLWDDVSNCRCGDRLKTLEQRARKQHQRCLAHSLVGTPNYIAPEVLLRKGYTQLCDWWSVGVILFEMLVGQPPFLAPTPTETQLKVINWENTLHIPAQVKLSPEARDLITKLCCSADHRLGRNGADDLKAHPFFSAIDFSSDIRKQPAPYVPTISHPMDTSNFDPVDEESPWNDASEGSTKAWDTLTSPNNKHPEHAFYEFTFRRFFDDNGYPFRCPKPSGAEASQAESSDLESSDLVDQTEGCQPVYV

In assay [1] the target is T3, RPS6KA4(Kin.Dom.2-C-terminal) (Homo sapiens, UniProt O75676).
T3 construct: Kin.Dom.2-C-terminal
T3 sequence (O75676 whole entry): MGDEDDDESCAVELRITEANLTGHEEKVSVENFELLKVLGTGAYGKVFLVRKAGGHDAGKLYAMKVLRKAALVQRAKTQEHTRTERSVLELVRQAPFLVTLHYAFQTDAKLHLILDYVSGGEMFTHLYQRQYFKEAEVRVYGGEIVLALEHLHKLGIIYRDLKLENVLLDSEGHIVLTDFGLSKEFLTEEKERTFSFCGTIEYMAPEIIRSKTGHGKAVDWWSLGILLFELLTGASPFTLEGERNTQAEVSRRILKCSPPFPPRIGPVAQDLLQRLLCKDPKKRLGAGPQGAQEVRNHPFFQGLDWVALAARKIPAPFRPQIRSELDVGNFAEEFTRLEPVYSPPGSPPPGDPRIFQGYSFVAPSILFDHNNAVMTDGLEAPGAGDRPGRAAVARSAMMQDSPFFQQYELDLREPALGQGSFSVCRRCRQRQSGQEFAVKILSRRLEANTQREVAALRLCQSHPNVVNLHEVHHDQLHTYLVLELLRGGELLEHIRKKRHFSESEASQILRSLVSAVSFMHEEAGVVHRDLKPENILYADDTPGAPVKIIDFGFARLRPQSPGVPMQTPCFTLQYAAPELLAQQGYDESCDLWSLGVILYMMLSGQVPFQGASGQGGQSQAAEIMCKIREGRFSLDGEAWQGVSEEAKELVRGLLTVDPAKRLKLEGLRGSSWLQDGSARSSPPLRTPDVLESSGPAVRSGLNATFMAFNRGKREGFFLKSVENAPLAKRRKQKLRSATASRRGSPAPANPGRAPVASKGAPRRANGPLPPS

A further assay has as its target T4, ITK (Homo sapiens, UniProt Q08881).
T4 sequence (Q08881 1-620): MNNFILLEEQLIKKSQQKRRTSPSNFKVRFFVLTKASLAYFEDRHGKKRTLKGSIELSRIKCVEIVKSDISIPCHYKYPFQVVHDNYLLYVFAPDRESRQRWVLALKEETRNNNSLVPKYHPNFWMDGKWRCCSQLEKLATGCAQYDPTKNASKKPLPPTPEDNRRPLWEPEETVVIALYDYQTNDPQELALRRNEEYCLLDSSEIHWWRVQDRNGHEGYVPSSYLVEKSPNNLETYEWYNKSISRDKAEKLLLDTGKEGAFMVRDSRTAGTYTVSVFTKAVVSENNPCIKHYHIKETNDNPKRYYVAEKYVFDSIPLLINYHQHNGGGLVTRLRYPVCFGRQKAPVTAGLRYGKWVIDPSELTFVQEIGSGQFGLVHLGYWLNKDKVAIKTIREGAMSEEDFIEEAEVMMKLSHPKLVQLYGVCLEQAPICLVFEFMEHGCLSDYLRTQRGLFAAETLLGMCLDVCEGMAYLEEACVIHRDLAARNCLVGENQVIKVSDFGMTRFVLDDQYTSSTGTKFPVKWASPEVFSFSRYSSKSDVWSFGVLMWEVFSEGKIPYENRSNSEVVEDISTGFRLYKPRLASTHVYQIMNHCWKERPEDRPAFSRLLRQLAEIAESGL

For the next assay, the target named is T5, ERK2 (Homo sapiens, UniProt P28482).
T5 construct: gene MAPK1
T5 sequence (P28482 whole entry): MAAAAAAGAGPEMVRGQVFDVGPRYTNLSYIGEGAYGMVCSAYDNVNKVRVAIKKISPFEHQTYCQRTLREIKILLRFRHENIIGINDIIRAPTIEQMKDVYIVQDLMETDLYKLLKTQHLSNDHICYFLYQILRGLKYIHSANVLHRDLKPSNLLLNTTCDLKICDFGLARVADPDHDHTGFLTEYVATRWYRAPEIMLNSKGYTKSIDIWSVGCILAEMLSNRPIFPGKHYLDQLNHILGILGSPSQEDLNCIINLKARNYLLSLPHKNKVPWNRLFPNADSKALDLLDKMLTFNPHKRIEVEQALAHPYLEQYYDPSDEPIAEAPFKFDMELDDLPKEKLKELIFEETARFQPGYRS

In another assay the target is T6, PAK7 (Homo sapiens, UniProt Q9P286).
T6 construct: gene PAK5
T6 sequence (Q9P286 whole entry): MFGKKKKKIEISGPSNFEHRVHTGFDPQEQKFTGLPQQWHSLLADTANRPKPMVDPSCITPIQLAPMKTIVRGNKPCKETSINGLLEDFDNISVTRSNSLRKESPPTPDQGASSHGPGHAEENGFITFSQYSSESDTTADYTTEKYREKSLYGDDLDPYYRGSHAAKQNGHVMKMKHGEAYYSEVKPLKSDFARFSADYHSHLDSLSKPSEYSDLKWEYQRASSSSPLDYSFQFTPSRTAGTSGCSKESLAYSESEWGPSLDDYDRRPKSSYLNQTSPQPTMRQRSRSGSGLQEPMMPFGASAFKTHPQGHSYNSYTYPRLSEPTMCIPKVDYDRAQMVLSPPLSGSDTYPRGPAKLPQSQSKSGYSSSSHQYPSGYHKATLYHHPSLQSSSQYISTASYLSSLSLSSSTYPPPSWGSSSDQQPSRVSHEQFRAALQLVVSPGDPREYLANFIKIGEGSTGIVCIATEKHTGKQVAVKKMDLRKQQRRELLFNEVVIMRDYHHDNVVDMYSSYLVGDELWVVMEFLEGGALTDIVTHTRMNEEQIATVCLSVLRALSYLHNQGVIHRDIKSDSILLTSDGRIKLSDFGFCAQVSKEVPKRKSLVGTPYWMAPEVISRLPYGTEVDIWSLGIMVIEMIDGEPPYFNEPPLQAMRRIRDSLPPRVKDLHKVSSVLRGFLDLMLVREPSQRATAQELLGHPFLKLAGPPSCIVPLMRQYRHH

Setting [2] is: read-out: Niraparib (MK-4827) / %Ctrl @ 10000nM.
Setting [3] is: read-out: Talazoparib (BMN 673) / %Ctrl @ 10000nM.
[4] abbreviates: read-out: Rucaparib / %Ctrl @ 10000nM, binding competition, % of control.
Setting [5] is: read-out: Olaparib / %Ctrl @ 10000nM.

Where two headings read alike, the source gives them in different places.

T1 sequence (Q96Q40 whole entry): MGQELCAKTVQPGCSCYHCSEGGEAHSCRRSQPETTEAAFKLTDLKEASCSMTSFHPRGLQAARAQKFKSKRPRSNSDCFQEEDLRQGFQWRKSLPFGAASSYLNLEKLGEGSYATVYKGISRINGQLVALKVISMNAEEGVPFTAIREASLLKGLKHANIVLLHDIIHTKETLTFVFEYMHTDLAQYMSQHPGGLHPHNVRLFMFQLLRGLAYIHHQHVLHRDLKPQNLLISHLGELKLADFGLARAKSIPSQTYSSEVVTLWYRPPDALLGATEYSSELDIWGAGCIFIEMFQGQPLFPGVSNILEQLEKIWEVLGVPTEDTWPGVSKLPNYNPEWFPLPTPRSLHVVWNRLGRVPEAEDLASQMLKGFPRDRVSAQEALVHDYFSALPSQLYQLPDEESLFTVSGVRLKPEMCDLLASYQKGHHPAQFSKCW
Sequence of DAPK3 (O43293 whole entry): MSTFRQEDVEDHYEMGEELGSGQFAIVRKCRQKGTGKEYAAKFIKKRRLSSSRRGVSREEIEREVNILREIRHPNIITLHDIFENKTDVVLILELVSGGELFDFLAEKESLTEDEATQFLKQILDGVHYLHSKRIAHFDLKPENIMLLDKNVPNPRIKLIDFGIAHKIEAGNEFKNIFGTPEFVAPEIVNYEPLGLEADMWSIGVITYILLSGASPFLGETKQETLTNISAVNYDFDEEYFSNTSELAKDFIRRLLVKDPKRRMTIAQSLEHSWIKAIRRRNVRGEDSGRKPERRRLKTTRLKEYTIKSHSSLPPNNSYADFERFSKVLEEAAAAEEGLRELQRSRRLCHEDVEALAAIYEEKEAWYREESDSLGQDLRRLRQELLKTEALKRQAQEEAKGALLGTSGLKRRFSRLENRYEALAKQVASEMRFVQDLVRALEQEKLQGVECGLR

As to `NC(=O)c1cccc2cn(-c3ccc([C@@H]4CCCNC4)cc3)nc12` [Niraparib], the percent of control binding at 10 µM on DAPK3 (setting [2]) stood at 69%; at PFTAIRE2 (setting [2]) it was 96%; on LATS2 (setting [2]), 4.2%; in assay [1] (setting [2]), 80%; at ITK (setting [2]), 91%; at ERK2 (setting [2]), 93%. The percent of control binding at 10 µM at PAK7 (setting [2]) was determined as 86%.

Consider `Cn1ncnc1[C@H]1c2n[nH]c(=O)c3cc(F)cc(c23)N[C@@H]1c1ccc(F)cc1` [Talazoparib], for which the percent of control binding at 10 µM was 87% at DAPK3 (setting [3]); 100% at PFTAIRE2 (setting [3]); 82% on LATS2 (setting [3]); 100% in assay [1] (setting [3]); 84% on ITK (setting [3]); 100% at ERK2 (setting [3]). For the same compound, at PAK7 (setting [3]), the percent of control binding at 10 µM is 100%.

`CNCc1ccc(-c2[nH]c3cc(F)cc4c3c2CCNC4=O)cc1` [Rucaparib]: the percent of control binding at 10 µM was 24% at DAPK3 (setting [4]); 100% at PFTAIRE2 (setting [4]); 48% on LATS2 (setting [4]); 91% in assay [1] (setting [4]); 100% on ITK (setting [4]); 94% at ERK2 (setting [4]). Also, at PAK7 (setting [4]), the percent of control binding at 10 µM was 86%.

Regarding `O=C(c1cc(Cc2n[nH]c(=O)c3ccccc23)ccc1F)N1CCN(C(=O)C2CC2)CC1` [Olaparib], the percent of control binding at 10 µM at DAPK3 (setting [5]) stood at 93%; on PFTAIRE2 (setting [5]) it was 100%; at LATS2 (setting [5]) it was 77%; in assay [1] (setting [5]), 92%; on ITK (setting [5]) it was 100%; on ERK2 (setting [5]), 93%. Further, on PAK7 (setting [5]), the percent of control binding at 10 µM is 100%.

The values are drawn from paper PMC7026418, “The kinase polypharmacology landscape of clinical PARP inhibitors” (Scientific Reports, 2020).
